This note sets out measurements from article PMC12750270, “Design and Preclinical Evaluation of a ^68Ga-Labeled Macrocyclic Peptide PET Probe Targeting Transferrin Receptor 1 in Colorectal Cancer” (ACS Omega, 2025).

In one data set the target is T1, human TfR1 (Homo sapiens, UniProt P02786).
T1 construct: Fc; purchased Acro Biosystems TFR-H5264
The data set can be described thus: Surface plasmon resonance (SPR) binding affinity assay, Biacore 8K. Conditions: recombinant human TfR1-Fc immobilized, read-out: association rate constant (Ka). As to the method: 1 (A) Synthetic scheme for^68 Ga-NOTA-TR01; (B) ESI-MS analysis of TR01; (C) Binding response (nm) between human TfR1 and varying concentrations (62.5–1,000 nM) of TR01; (D, E) Stability assessment of ^68 Ga-NOTA-TR01 in PBS and serum at 37 °C, measured by radio-HPLC.
SPR was employed to quantify the binding interaction between TR01 and TfR1.
The binding affinity of NOTA-TR01 to human TfR1 was evaluated by surface plasmon resonance (SPR) using a Biacore 8K system (Cytiva, USA) at Nanjing Genscript Probio. Recombinant human TfR1-Fc protein (TFR-H5264, Acro Biosystems) was immobilized on the sensor chip for kinetic analysis. The assay was performed under acidic conditions (pH 2.0) using a running buffer containing […]. Real-time binding data were collected at a 1:1 ligand-to-analyte ratio. The equilibrium dissociation constant (KD) was calculated by globally fitting the association and dissociation curves.

A short description of a further data set: physchem. The data set is classed as physicochemical. On the procedure:
The molar activity was determined to be greater than 20 GBq/μmol. The log P was calculated as −1.709 ± 0.121 (n = 6), indicating a hydrophilic profile.
The lipophilicity of ^68Ga-NOTA-TR01 was determined via a standard octanol–water partition method. A solution of ^68Ga-NOTA-TR01 [5 μL, 0.74 MBq in phosphate-buffered saline (PBS)] was mixed with 0.5 mL n-octanol and 0.495 mL PBS. The biphasic system was vortexed for 3 min and centrifuged at 4,000 rpm for 5 min to achieve phase separation. Aliquots (100 μL) from each layer were sampled, and radioactivity was measured using a γ-counter. The log P was calculated using the formula: log P = log (cpm_octanol/cpm_PBS).

Data set [1] is classed as physicochemical. Conditions: 37 °C, 24 h, ∼3.7 MBq in 200 μL, radio-HPLC. As to the method: Collectively, these findings confirmed the suitability of ^68Ga-NOTA-TR01 for further preclinical applications.
[…] At each time point, radiochemical integrity was assessed via radio-HPLC by comparing the retention time of the incubated samples with that of a nonincubated control.

The subject of a further data set is HT29 cells (TfR1 high). The data set can be described thus: Cellular binding/blocking assay in HT29 cells. The data set is classed as cell-based, human. Conditions: for cellular binding: HT29, 37 °C, 37 kBq, γ-counter, triplicate. On the procedure:
(§1) The percentage of added dose per 5 × 10^5 cells (%AD/5 × 10^5 cells) was as follows: at 30 min: 5.44 ± 0.12% (HT29) vs 2.63 ± 0.09% (LOVO), at 60 min: 6.36 ± 0.05% (HT29) vs 3.19 ± 0.23% (LOVO), at 120 min: 9.56 ± 0.17% (HT29) vs 4.51 ± 0.22% (LOVO).
(§2) The cell-specific binding of ^68Ga-NOTA-TR01 was evaluated in HT29 and LOVO cells. Cells were seeded in 12-well plates (5 × 10^5 cells/well) and cultured for 24 h under standard conditions (37 °C, 5% CO2). After washing with cold PBS, cells were incubated with 1 mL serum-free medium containing ^68Ga-NOTA-TR01 (37 kBq, ∼[…] corresponding to approximately 0.4 pmol of peptide). For blocking studies, parallel wells were pretreated with a 1,000-fold molar excess (3.3 nmol, 1 μg) of unlabeled TR01 peptide. Cellular binding was assessed at 0.5, 1, 2, and 4 h postincubation. Following incubation, cells were washed twice with ice-cold PBS, lysed in 1 M NaOH, and the associated radioactivity was measured using a γ-counter. Radioactivity data were corrected for decay using the ^68Ga decay constant (λ = 0.00876 min^– 1). Each condition was measured in triplicate for statistical accuracy.

For another data set, the system named is LOVO cells (TfR1 low). The data set can be described thus: Cellular binding assay in LOVO cells. Conditions: 37 °C, 37 kBq, γ-counter, triplicate. The data set is classed as cell-based, human. On the procedure: as §1, §2
A short description of another data set: in vivo. Also on record: species or system BALB/c nude mice. Particulars: BALB/c nude, mouse, iv, total radioactivity. On the procedure: Three mice were included at each time point; %ID/g is the percentage of injected dose per gram of tissue.
Xenograft tumor models were established by subcutaneously injecting 1 × 10^7 LOVO or HT29 cells (in 100 μL PBS) into the right flank of 5–6-week-old BALB/c nude mice (purchased from Hangzhou Ziyuan Experimental Animal Technology). Tumor growth was monitored by caliper measurement, and imaging experiments were initiated once tumors reached a volume of 100–300 mm^3. All animal procedures were conducted in accordance with the institutional guidelines of the Animal Care and Use Committee at Soochow University.
A comparative biodistribution study was conducted in BALB/c nude mice (n = 3 per group), each intravenously injected with ^68Ga-NOTA-TR01 (1.85 ± 0.49 MBq, corresponding to ∼0.15 nmol peptide, in 100 μL saline). At 30-, 60-, and 120 min postinjection, mice were euthanized for terminal blood collection and organ harvesting. For blocking studies, an additional cohort was sacrificed at 60 min following coinjection with cold NOTA-TR01 (300 μg, ∼0.1 μmol per mouse). Excised tissues were perfused three times with PBS to remove residual blood, weighed, and their radioactivity quantified using a γ-counter. The biodistribution of the radiotracer was expressed as %ID/g. Tumor-to-background ratios (TBRs) were calculated to assess tracer specificity.

T1 sequence (P02786 whole entry): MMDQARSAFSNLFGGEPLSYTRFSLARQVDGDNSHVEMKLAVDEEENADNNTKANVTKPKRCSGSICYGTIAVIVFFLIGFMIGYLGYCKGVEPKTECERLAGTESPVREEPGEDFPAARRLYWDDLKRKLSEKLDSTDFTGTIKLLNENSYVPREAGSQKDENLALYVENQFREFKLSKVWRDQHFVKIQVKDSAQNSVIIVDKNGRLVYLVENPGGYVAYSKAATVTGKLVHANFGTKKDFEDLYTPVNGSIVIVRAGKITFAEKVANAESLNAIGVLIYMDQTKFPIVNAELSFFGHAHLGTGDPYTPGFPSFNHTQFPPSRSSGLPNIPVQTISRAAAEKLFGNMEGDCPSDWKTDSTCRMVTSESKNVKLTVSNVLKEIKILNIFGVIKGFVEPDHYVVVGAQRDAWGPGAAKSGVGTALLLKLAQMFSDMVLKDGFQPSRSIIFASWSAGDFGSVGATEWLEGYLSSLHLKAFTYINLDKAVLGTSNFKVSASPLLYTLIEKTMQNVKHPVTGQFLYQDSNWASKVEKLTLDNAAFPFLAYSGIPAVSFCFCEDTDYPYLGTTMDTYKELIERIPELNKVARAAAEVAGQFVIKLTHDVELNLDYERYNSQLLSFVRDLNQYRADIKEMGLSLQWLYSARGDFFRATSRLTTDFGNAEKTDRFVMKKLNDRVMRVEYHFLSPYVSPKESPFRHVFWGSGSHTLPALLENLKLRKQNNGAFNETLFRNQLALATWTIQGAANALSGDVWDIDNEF

On to `CC[C@H](C)[C@@H]1NC(=O)[C@H](Cc2ccc(O)cc2)NC(=O)[C@H](Cc2ccc(O)cc2)NC(=O)[C@H](CC(N)=O)NC(=O)[C@H](Cc2c[nH]c3ccccc23)NC(=O)[C@H](C(C)C)NC(=O)[C@H](Cc2ccccc2)NC(=O)[C@H](C(C)C)NC(=O)[C@H](C)NC(=O)CSC[C@@H](C(=O)NCCOCCOCCOCCOCCOCCOCCOCCOCCOCCOCCOCCOCCC(=O)N[C@@H](CCCCNC(=O)CN2CCN(CC(=O)O)CCN(CC(=O)O)CC2)C(=O)O)NC(=O)[C@H](Cc2ccc(O)cc2)N(C)C(=O)[C@H](Cc2ccc(O)cc2)NC(=O)[C@H](CCCNC(=N)N)NC(=O)[C@H](CCCNC(=N)N)NC(=O)[C@H]([C@@H](C)CC)NC1=O` [NOTA-TR01, cyclo(Ac-Ala-Val-Phe-Val-Trp-Asn-Tyr-Tyr-Ile-Ile-Arg-Arg-Tyr-NMe-Tyr-Cys)-PEG12-Lys-NOTA], for which the kon at human TfR1 was 77300 M⁻¹ s⁻¹.

With `CC[C@H](C)[C@@H]1NC(=O)[C@H](Cc2ccc(O)cc2)NC(=O)[C@H](Cc2ccc(O)cc2)NC(=O)[C@H](CC(N)=O)NC(=O)[C@H](Cc2c[nH]c3ccccc23)NC(=O)[C@H](C(C)C)NC(=O)[C@H](Cc2ccccc2)NC(=O)[C@H](C(C)C)NC(=O)[C@H](C)NC(=O)CSC[C@@H](C(=O)NCCOCCOCCOCCOCCOCCOCCOCCOCCOCCOCCOCCOCCC(=O)N[C@@H](CCCCNC(=O)CN2CCN(CC(=O)O)CCN(CC(=O)O)CC2)C(=O)O)NC(=O)[C@H](Cc2ccc(O)cc2)N(C)C(=O)[C@H](Cc2ccc(O)cc2)NC(=O)[C@H](CCCNC(=N)N)NC(=O)[C@H](CCCNC(=N)N)NC(=O)[C@H]([C@@H](C)CC)NC1=O` [^68Ga-NOTA-TR01, metal not drawn], the logD in the data set “physchem” is -1.71 ± 0.121. Besides, the “radiochemical integrity after incubation in PBS” value in data set [1] was more than 98%. In addition, the cellular binding with HT29 cells (TfR1 high) (30 min) is recorded as 5.44 ± 0.12 %AD/5 × 10^5 cells; in the data set with HT29 cells (TfR1 high) (60 min) it was 6.36 ± 0.05 %AD/5 × 10^5 cells; in the data set with HT29 cells (TfR1 high) (120 min), 9.56 ± 0.17 %AD/5 × 10^5 cells; in the data set on LOVO cells (TfR1 low) (30 min), 2.63 ± 0.09 %AD/5 × 10^5 cells; in the data set on LOVO cells (TfR1 low) (60 min), 3.19 ± 0.23 %AD/5 × 10^5 cells; in the data set on LOVO cells (TfR1 low) (120 min), 4.51 ± 0.22 %AD/5 × 10^5 cells. The “cellular binding, blocking group” value with HT29 cells (TfR1 high) (HT29, preincubation with 1,000-fold molar excess of unlabeled TR01, 30 min) was 1.58 ± 0.06%; with HT29 cells (TfR1 high) (HT29, preincubation with 1,000-fold molar excess of unlabeled TR01, 60 min), 1.34 ± 0.29%; in the data set on HT29 cells (TfR1 high) (HT29, preincubation with 1,000-fold molar excess of unlabeled TR01, 120 min) it was 1.27 ± 0.09%. Moreover, the “inhibition of cell binding by cold peptide” value in the data set on HT29 cells (TfR1 high) (HT29 cells, cold peptide) is on record as “over 85%”. Besides, in the data set “in vivo”, the tissue to tissue ratio at 2 h is more than 7.
